The values below come from patent US4771068A, “Mitomycin derivatives having anti-tumor and antibacterial utility” (priority 1985, dated 1988).

Converted amounts (≈) assume the structure as drawn.

The test system of series [1] is Staphylococcus aureus ATCC 6538P. As to the kind of experiment: Antibacterial activity (minimum growth inhibitory concentration), agar dilution method. In kind it is cell-based. As to conditions: ATCC6538P, pH 7.0, agar dilution method, read-out: minimum growth inhibitory concentration, SA. The protocol:
(§1) Antibacterial activities of Compounds (I) against various bacteria are shown by the minimum growth inhibitory concentration (μg/ml) in Table 3. The minimum growth inhibitory concentration was measured at pH 7.0 according to the agar dilution method. In the table, bacteria are indicated by the following letters.
SA: Staphylococcus aureus ATCC 6538P
In general terms: In agar dilution the substance is mixed into plates at graded concentrations.

Series [2] deals with Streptococcus faecalis ATCC 10541. The series is described as above. As to conditions: Enterococcus faecalis, ATCC10541; Streptococcus faecalis ATCC 10541, pH 7.0, agar dilution method; read-out: minimum growth inhibitory concentration, SF. In kind it is cell-based. The procedure:
as §1
SF: Streptococcus faecalis ATCC 10541

Series [3] is described as follows: Acute toxicity. As to conditions: mouse, in vivo, ip; ddY mice, intraperitoneally once, 14 days observation. The procedure: Each animal of the test group consisting of 5 ddY mice was administered intraperitoneally once with a test compound. […] The LD50 was determined by Beherns Kaerber's method.
Series [4] has as its system Bacillus subtilis 10707. Briefly: Antibacterial activity (minimum growth inhibitory concentration), agar dilution method. In kind it is cell-based. The settings on record: Bacillus subtilis 10707, pH 7.0, agar dilution method; read-out: minimum growth inhibitory concentration, BS. The procedure: as §1
BS: Bacillus subtilis 10707

The subject of series [5] is Sarcoma 180 solid tumour. As to the kind of experiment: animal or person. The settings on record: for CIc: CI of test compound divided by CI of mitomycin C as control in the same condition; for ED50: Mus musculus, Sarcoma-180, iv, 168 h; for CI (LD50/ED50): chemotherapeutic index. From the text:
CIc : Value given by division of CI of each test compound by CI of
determination of antitumour activity of the test compound. A CIc
5×10^6 cells of Sarcoma 180 solid tumour were intraperitoneally implanted into ddY mice. 7 days later, ascites cells were sampled. The cells were washed once with a sterilized physiological sodium chloride solution and were used to prepare a cell suspension containing 5×10^7 cells per ml with a sterilized physiological sodium chloride solution. On each occasion, 0.1 ml of the cell suspension was subcutaneously implanted into the right axilla of a male mouse (ddY strain; body weight 20±2 g).
The anti-tumour activity was determined in the following manner. 7 days after the implantation, the major axis (a) and the minor axis (b) of the tumour were measured to calculate a value of "a×b^2 /2" which corresponds to the volume of the tumour. The anti-tumour activity was expressed by the ratio (T/C) of the volume (T) of the tumours of the group of animals administered with the test compound to the corresponding volume (C) of tumours of the untreated animals.
On graph paper, T/C was indicated by an arithmetic scale on the longitudinal axis and the administered amount of the test compound was indicated by a logarithmic scale on the lateral axis.

In series [6] the test system is peripheral leucocytes. As to the kind of experiment: Effect on the peripheral leucocytes number. In kind it is in vivo, mouse (ddY strain). As to conditions: minimum dose reducing peripheral leucocytes number to 4000/mm^3; tumour-carrying ddY mice, intraperitoneal, 4 days after administration. The procedure: WBC4000 : Minimum dose of a test compound which reduces the
peripheral leucocytes number to 4000/mm^3.
Sarcoma 180 solid tumour cells (5×10^6) were subcutaneously implanted into the right axilla of each mouse (body weight 20±2 g) of a group consisting of 5 male mice (ddY strain). 24 hours after implantation,a test compound was intraperitoneally administered to each animal. 4 days after the administration, blood (each 0.02 ml) was collected from the suborbital plexus vein of each tumour-carrying animal. The collected sample of blood was dispersed in 9.98 ml of Cell-Kit Seven solution. One drop of saponin solution was added to the sample to dissolve erythrocytes and then a microcell counter was used to count the number of leucocytes. […] The relationship between the number of peripheral leucocytes and the dose of the test compound was plotted and the dose (i.e., WBC4000) corresponding to 4000 peripheral leucocytes/mm^3 (about half the number of leucocytes of normal mice) was obtained.

In series [7] the test system is Proteus vulgalis ATCC 6897. Briefly: Antibacterial activity (minimum growth inhibitory concentration), agar dilution method. In kind it is cell-based. As to conditions: pH 7, read-out: minimum growth inhibitory concentration, PV. The protocol:
as §1
PV: Proteus vulgalis ATCC 6897

Series [8] has as its system Klebsiella pneumoniae ATCC 10031. Described as above. The settings on record: ATCC10031; Klebsiella pneumoniae ATCC 10031, pH 7.0, agar dilution method; read-out: minimum growth inhibitory concentration, KP. In kind it is cell-based. The procedure:
as §1
KP: Klebsiella pneumoniae ATCC 10031

Usually LD50 stands for the dose at which mortality reaches 50%. Low readings indicate greater toxicity, high ones lower toxicity. As usually defined, the ED50 is the dose that gives a 50% effect, or the effect in half of the subjects.

For `CC1=C(NCCSC(=O)c2ccc(F)cc2)C(=O)C2=C(C1=O)N1C[C@H]3[C@H](N3C)[C@]1(O)[C@H]2COC(N)=O` (stereo partly drawn) [Compound 19, 7-N-[2-(4-fluorobenzoylthio)ethyl]mitomycin D], the MIC in series [1] stood at 6.3 µg/mL (≈ 12.2 µM). The MIC in series [2] worked out at 100 µg/mL (≈ 194 µM). Moreover, the LD50 at 336 h in series [3] is 15 mg/kg. The MIC in series [4] is 1.6 µg/mL (≈ 3.1 µM). Also, in series [5], the CIc was 0.89, the ED50 was found to be 5.6 mg/kg and the “CI (LD50/ED50)” value was found to be 2.7. The WBC4000 in series [6] was 19.1 mg/kg.
Consider `CO[C@@]12[C@H](COC(N)=O)C3=C(C(=O)C(C)=C(NCCCCCCCCSC(=O)c4ccc(F)cc4)C3=O)N1C[C@@H]1N[C@@H]12` [Compound 20], for which the MIC was 0.63 µg/mL (≈ 1.05 µM) in series [1]; more than 40 µg/mL in series [7]; 0.63 µg/mL (≈ 1.05 µM) in series [2]; 40 µg/mL (≈ 66.6 µM) in series [8]; 0.31 µg/mL (≈ 0.516 µM) in series [4]. The same compound registered an LD50 at 336 h in series [3] of 62.5 mg/kg. Besides, in series [5], the CIc turned out to be 1.6. The compound further showed a median effective dose (ED50) in series [5] of 16.3 mg/kg. Besides, the “CI (LD50/ED50)” value in series [5] stood at 3.8. The WBC4000 in series [6] is recorded as 13.0 mg/kg.
With `CC1=C(NCCSC(=O)c2ccc(Br)cc2)C(=O)C2=C(C1=O)N1C[C@H]3[C@H](N3C)[C@]1(O)[C@H]2COC(N)=O` (stereo partly drawn) [Compound 22], the MIC is 0.39 µg/mL (≈ 0.675 µM) in series [1], 25 µg/mL (≈ 43.3 µM) in series [2], more than 100 µg/mL in series [8] and less than 0.049 µg/mL in series [4].
Consider `COc1ccc(C(=O)SCCNC2=C(C)C(=O)C3=C(C2=O)[C@@H](COC(N)=O)[C@@]2(OC)[C@H]4N[C@H]4CN32)cc1` [Compound 23], for which the MIC in series [1] was less than 0.02 µg/mL; in series [7], 10 µg/mL (≈ 18.9 µM); in series [2], 0.16 µg/mL (≈ 0.303 µM); in series [8], 5 µg/mL (≈ 9.46 µM); in series [4], less than 0.02 µg/mL. In addition, in series [3], the 50% lethal dose (LD50) at 336 h came to 6.3 mg/kg. In series [5], this compound came in with a CIc of 0.81. In addition, the 50% effect level in series [5] (ED50) was put at a dose of 2.5 mg/kg. The “CI (LD50/ED50)” value in series [5] is on record as 2.5. Moreover, the WBC4000 in series [6] came out at 5 mg/kg.
As for `COc1ccc(C(=O)SCCNC2=C(C)C(=O)C3=C(C2=O)[C@H](COC(N)=O)[C@@]2(O)[C@@H]4[C@H](CN32)N4C)cc1` (stereo partly drawn) [Compound 24], in series [1], the MIC was determined as 1.6 µg/mL (≈ 3.03 µM). Moreover, the MIC in series [2] was 100 µg/mL (≈ 189 µM). The compound also returned a 50% lethal dose (LD50) at 336 h in series [3] of 27.5 mg/kg. Further, the MIC in series [4] amounted to 1.6 µg/mL (≈ 3.03 µM). Moreover, in series [5], the CIc turned out to be 1.3, it took a dose of 7.2 mg/kg to reach the 50% effect level (ED50) and the “CI (LD50/ED50)” value was found to be 3.8. Besides, the WBC4000 in series [6] is 25.5 mg/kg.
With `CC1=C(NCCSC(=O)c2ccc([N+](=O)[O-])cc2)C(=O)C2=C(C1=O)N1C[C@H]3[C@H](N3C)[C@]1(O)[C@H]2COC(N)=O` (stereo partly drawn) [Compound 25], the MIC in series [1] was 3.1 µg/mL (≈ 5.7 µM); in series [7] it was more than 100 µg/mL; in series [2], 13 µg/mL (≈ 23.9 µM); in series [8], 13 µg/mL (≈ 23.9 µM); in series [4], 0.39 µg/mL (≈ 0.717 µM). For the same compound, in series [3], the LD50 at 336 h was 33.8 mg/kg. In series [5], this compound registered a CIc of 1.6. For the same compound, in series [5], the ED50 was determined as 6.9 mg/kg. Further, the “CI (LD50/ED50)” value in series [5] is on record as 4.9. Also, the WBC4000 in series [6] is reported as 15.9 mg/kg.
In the case of `C=C1C2=C(C(=O)C(C)=C(NCCSC(C)=S)C2=O)N2C[C@H]3[C@H](N3C)[C@]12O` (stereo partly drawn) [Compound 29], the MIC in series [1] was 3.1 µg/mL (≈ 7.92 µM); in series [7], 13 µg/mL (≈ 33.2 µM); in series [2], more than 100 µg/mL; in series [8], 25 µg/mL (≈ 63.9 µM); in series [4], 1.6 µg/mL (≈ 4.09 µM).
In series [5], `CO[C@@]12[C@H](COC(N)=O)C3=C(C(=O)C(C)=C(N)C3=O)N1C[C@@H]1N[C@@H]12` [MMC, mitomycin C, reference compound] gave a CIc of 1. The compound also showed a WBC4000 in series [6] of 2.4 to 6.1 mg/kg.
